Patent US12714696B2, “Low dose fluralaner compositions for protection against parasitic invertebrate pest” (VIRBAC, priority 2019, dated 2026)
Read-outs that look alike come from different tables or passages of the source.

Experiment: Pharmacokinetics after repeated oral administration of 250 μg/kg and 35 μg/kg of fluralaner in dogs after feeding
Type: in vivo, beagle dogs
Conditions: for concentration at 168 h / concentration at 192 h / concentration at 216 h / concentration at 240 h / concentration at 384 h / concentration at 528 h / concentration at 624 h / concentration at 720 h / half-life / Cmax: beagle, dog, plasma, po
Protocol: The first objective is to obtain the pharmacokinetic parameters after repeated oral administration of […] and 35 μg/kg of fluralaner in dogs after feeding.
The second objective is to investigate the pharmacodynamics between the fluralaner plasmatic dose and the effectiveness against ticks. • IVP: Investigational Veterinary Product, is pure Fluralaner+DMSO (250 μg/kg on Days 0 to 3 (0.25 mL/kg), then 35 μg/kg on Days 4 to 9 (0.35 mL/kg), then 600 μg/kg on Day 11) • Control product is DMSO (0.25 mL/kg on Days 0 to 3, then 0.35 mL/kg on Days 4 to 9)
On Days 0, 1, 2 and 3, all dogs assigned to group 2 received the Investigational Veterinary Product. On Days 0 to 3 all dogs in group 1 received the control product at a volume equal to the dogs in group 2. Dogs assigned to group 1 received the control product and served as Placebo controls. The quantity of Investigational Veterinary Product and control product administered was calculated according to the dog's individual body weight measured on Day −1. […]
On days of administration of pre-Investigational Veterinary Product or Control Product, dogs were fed (the same dog food) approximately half of their normal daily ration 30 minutes to 35 minutes prior to administration. Food consumed by the time of administration was calculated and recorded. The remainder of their normal daily ration was fed immediately after administration.
The PK parameters of fluralaner were calculated using a non-compartmental approach.
The following rules were applied for the calculation of the PK parameters: • All the plasma concentrations, validated by the bioanalytical laboratory, were used for the PK analysis. • The actual blood sampling times were used throughout. • Concentrations below the Limit of Quantification (LOQ) value were considered as zero from time zero (pre-dose) up to the time at which the first quantifiable concentration above the LOQ value was observed. Concentrations below the LOQ value between two quantifiable concentrations were considered as missing. Trailing concentrations below the LOQ value were not used in calculations.
Cmax the observed maximum concentration in plasma measured after dosing.
λz the terminal rate constant (λz) was estimated by log-linear regression analysis on data points visually assessed, to be on the terminal log-linear phase. For the slope of the terminal elimination phase to be accepted as reliable, the following criteria were used: • the terminal data points were apparently randomly distributed about a single straight line (on visual inspection), • a minimum of three data points, including the last measured data point and excluding Cmax, were available for the regression.
t1/2 the terminal plasma half-life (t1/2) was calculated according to the following equation: […]

[1] = oral 250 μg/kg Days 0-3, 35 μg/kg Days 4-9, 600 μg/kg Day 11, dogs, read-out: fluralaner concentration levels, individual animal
[2] = oral 250/35/600 μg/kg regimen, dogs, n=6, read-out: fluralaner concentration levels, GeoMean
[3] = oral 250/35/600 μg/kg regimen, dogs, n=6, read-out: fluralaner concentration levels, Maximum
[4] = oral 250/35/600 μg/kg regimen, dogs, n=6, read-out: fluralaner concentration levels, Mean
[5] = oral 250/35/600 μg/kg regimen, dogs, n=6, read-out: fluralaner concentration levels, Median
[6] = oral 250/35/600 μg/kg regimen, dogs, n=6, read-out: fluralaner concentration levels, Minimum

## Cc1cc(C2=NOC(c3cc(Cl)cc(Cl)c3)(C(F)(F)F)C2)ccc1C(=O)NCC(=O)NCC(F)(F)F (stereo not drawn) [fluralaner, Fluralaner]
[1]
  concentration at 168 h: 491 ng/mL
  concentration at 192 h: 542 ng/mL
  concentration at 216 h: 477 ng/mL
  concentration at 240 h: 386 ng/mL
  concentration at 384 h: 561 ng/mL
  concentration at 720 h: 300 ng/mL
[2]
  concentration at 168 h: 517 ng/mL
  concentration at 192 h: 508 ng/mL
  concentration at 216 h: 515 ng/mL
  concentration at 240 h: 469 ng/mL
  concentration at 384 h: 693 ng/mL
  concentration at 528 h: 327 ng/mL
  concentration at 624 h: 254 ng/mL
  concentration at 720 h: 262 ng/mL
[3]
  concentration at 168 h: 580 ng/mL
  concentration at 192 h: 558 ng/mL
  concentration at 216 h: 650 ng/mL
  concentration at 240 h: 724 ng/mL
  concentration at 384 h: 1000 ng/mL
  concentration at 528 h: 517 ng/mL
  concentration at 624 h: 403 ng/mL
  concentration at 720 h: 300 ng/mL
[4]
  concentration at 168 h: 518 ng/mL
  concentration at 192 h: 509 ng/mL
  concentration at 216 h: 518 ng/mL
  concentration at 240 h: 483 ng/mL
  concentration at 384 h: 714 ng/mL
  concentration at 528 h: 339 ng/mL
  concentration at 624 h: 263 ng/mL
  concentration at 720 h: 265 ng/mL
[5]
  concentration at 168 h: 520 ng/mL
  concentration at 192 h: 520 ng/mL
  concentration at 216 h: 485 ng/mL
  concentration at 240 h: 422 ng/mL
  concentration at 384 h: 654 ng/mL
  concentration at 528 h: 320 ng/mL
  concentration at 624 h: 244 ng/mL
  concentration at 720 h: 280 ng/mL
[6]
  concentration at 168 h: 461 ng/mL
  concentration at 192 h: 455 ng/mL
  concentration at 216 h: 468 ng/mL
  concentration at 240 h: 368 ng/mL
  concentration at 384 h: 523 ng/mL
  concentration at 528 h: 235 ng/mL
  concentration at 624 h: 182 ng/mL
  concentration at 720 h: 187 ng/mL
Oral 250 μg/kg Days 0-3, 35 μg/kg Days 4-9, 600 μg/kg Day 11, dogs, read-out: mean terminal half-life (converted)
  half-life: 15.5 days
Oral 250/35/600 μg/kg regimen, dogs, read-out: Cmax, range
  Cmax: 561 to 1000 ng/mL
Oral 250/35/600 μg/kg regimen, dogs, read-out: mean Cmax
  Cmax: 733 ng/mL
Oral 250/35/600 μg/kg regimen, dogs, read-out: terminal half-life, range
  half-life: 9.47 to 20.6 days
With the 35 μg/kg per day dose application from Day 4 to Day 9
  steady state concentrations: reached
